In PMC11215771 (Journal of Medicinal Chemistry, 2024):
Where “and” joins values, the source holds several entries; their conditions need not be identical. Equal entries are not always repeated.

Key:
[1] = target: BACE-1 (mouse Protein, recombinant) (Mus musculus, UniProt P56818); assay: Nanotemper (Monolith NT.115) binding analysis; conditions: for binding of free acid dyes to recombinant BACE1: 0.1 nM dye, BACE1 0.3–5000 nM
Experimental: For binding analysis, the Monolith NT.115 (Nanotemper) was used. BACE-1 (mouse Protein, recombinant, life technologies, 50002-M08H-250, LCL10JA2204)) was dissolved in 50 mM HEPES/100 mM NaCl, pH 5 to a concentration of 20 μM. […] Samples were loaded on standard capillaries (Nanotemper, MO-K022) and measured in triplicate at 22 °C, using 1%/60% LED power for Alexa488/Alexa568 and 10% MST power. Fluorescence was plotted against protein concentrations.

[2] = tested on: BACE1; conditions: cited from earlier work
[3] = target: recombinant human BACE1 protein (amino acids 1–457, extracellular domain) (Homo sapiens, UniProt P56817); assay: Fluorescence correlation spectroscopy (FCS) with BACE1 ECD in solution
[4] = target: T1, recombinant BACE1 extracellular domain (Homo sapiens, UniProt P56817); assay: FRET-based BACE1 inhibition (BACE1-activity FRET) assay; assay type: biochemical
T1 construct: purchased Thermo Fisher Scientific P2985
Experimental: In addition, we performed a fluorescence resonance energy transfer (FRET)-based BACE1 inhibition assay using the recombinant BACE1 extracellular domain and a BACE1 substrate coupled to a donor fluorophore, which is unquenched […] to the activity of BACE1. […] (Figure 1F).
Protease activity was determined using a FRET-based assay with recombinant BACE1 protein (Thermo Fisher Scientific; P2985). BACE1 inhibition was determined in end-points assays according to the manufacturer’s protocol except using a reduced volume of 12 μL in 384-well plates (Greiner, 788896). […] Fluorescence intensities were quantified with an infinite 200pro reader (Tecan) using top-reading mode. Data points were approximated using a logistic fit to determine half-inhibitory concentrations (pIC50).

[5] = target: T2, wild-type hBACE1 in CHO-K1 cells (Homo sapiens, UniProt P56817); assay: Single molecule TIRF microscopy and bleaching step analysis in CHO-K1 cells; assay type: cell-based; conditions: 200 nM probe, fixed CHO-K1, TIRF, after rolling background subtraction
T2 construct: expressed in transfected cells; host or cells: CHO-K1
Experimental: Due to the high photostability and quantum yield of the Alexa dyes, the C3-compounds are potential tools for single molecule fluorescence microscopy of BACE1. […] CHO-K1 cells were transfected with wild-type BACE1. […] The samples were then recorded using total internal reflection fluorescence (TIRF) microscopy. […] Prior to analysis, ImageJ rolling background subtraction was applied[45] (Figure 6A, right panel). […] Single particles were identified and time traces of fluorescence intensity were extracted using GMimPro[46] (Figure 6B). The time traces were then subjected to a bleaching-step analysis with quickPBSA[47] (Figure 6B). […] The msfGFP was reported previously to display a fluorescence probability of about 50%, defined as combined probability of fluorescence, detection in the specific imaging system and identification in the analysis of a BACE1 molecule.[48] […] Here, the best fits indicated also a fluorescence probability of about 60%, but with a considerably lower fit error compared to dimers only (Figure 6D, blue traces).
The panel in the middle depicts typical single molecule complexes 48 h after transfection with 50 ng wild type BACE1. […] The insets highlight single fluorescence spots at higher magnification. […] (B) Single fluorescence spots were located and fluorescence intensities over time were extracted (see methods). […]

[6] = FCS of free Alexa-C3 in HBS in the absence of BACE1; conditions: 100 nM in HBS, pH 5, no BACE1, mean ± SD
[7] = target: T3, hBACE1 fused to EGFP or mCherry in HEK293T cells (Homo sapiens, UniProt P56817); assay: Staining of transfected HEK293T cells, confocal imaging: BACE1; assay type: cell-based; conditions: living HEK293T, preincubation with 2 μM C3
T3 construct: expressed in transfected cells; host or cells: HEK293T
Experimental: (§1) Next, we explored the performance of the new Alexa-C3 compounds in living cells. Because of the rather hydrophilic properties, we exclusively targeted the cell membrane. To prevent intracellular accumulation, we first performed stainings at 4 °C arresting ATP-dependent endocytosis. […] All of the constructs were tagged at the C-terminus with either EGFP or mCherry to visualize subcellular expression. […] With these experiments, we want to exclude that a lack of staining is caused by an impaired accessibility of the protein by Alexa-C3 compounds. […] We then tested samples with BACE1 expression after fixation of the cells with paraformaldehyde (PFA).
(§2) (D) All conjugates were also probed on cells fixed with 4% paraformaldehyde (PFA) for 15 min prior to staining. […] Scale bars represent 5 μm (A–D) and 20 μm (E). […] Samples were excited at 488, 561, and 633 nm, respectively.
(§3) HEK293T cells (ATCC accession number CRL-11268) were maintained in Dulbecco's modified Eagle's medium (Sigma-Aldrich D6046) with 1g/L glucose, supplemented with 10% FCS (Merck) and 1% penicillin/streptomycin (PAA). CHO-K1 cells (ATCC #CCL-61) were maintained in modified phenol red free RPMI-1640 medium (Sigma-Aldrich, R7509), supplemented with 2 mM L-glutamine (Sigma-Aldrich, G7513), and 10% FCS (Merck). Cells were cultured at 37 °C in a 5% CO2 atmosphere. The following plasmids were used for transfection with the amount of DNA indicated (per 35 mm Petri dish): hBACE1 (NM_012104.4), 50 ng for single molecule recordings, 200 ng otherwise; hBACE1 fused to EGFP or mCherry, 75 ng; hBACE1 D289N fused to EGFP or mCherry, 75 ng; hBACE1 D289N, 200–400 ng; hBACE2 (NM_012105.3) fused to EGFP, 75 ng; hCathepsinD (HsCD00438327), Harvard PlasmID, 75 ng. Transfection was performed 24 h after plating using jetPEI (Polyplus) according to the manufacturer’s protocol.
For labeling, we plated HEK293T cells onto sterile 18 mm 1.5H borosilicate coverslips (VWR), coated with poly-D-lysine (Sigma). […] In addition, some cells were also fixed with 4% PFA or permeabilized with HBS + 50 μg/mL of Saponin for 15 min prior to staining as stated in the figure legend. After staining, live cells were washed with HBS twice. Confocal imaging was conducted at room temperature in HBS using the 63× objective and the pinhole set to 1 AU. Confocal imaging was performed 24 h after transfection.

[8] = target: T4, hBACE1 D289N (proteolytic inactive mutant) in HEK293T cells (Homo sapiens, UniProt P56817, D289N); assay: Staining of transfected HEK293T cells, confocal imaging: BACE1 D289N; assay type: cell-based
T4 construct: expressed in transfected cells; host or cells: HEK293T
Experimental: as §1, §2, §3
For labeling, we plated HEK293T cells onto sterile 18 mm 1.5H borosilicate coverslips (VWR), coated with poly-D-lysine (Sigma). […]

[9] = Fluorescence spectroscopy, sensitivity to BSA and Expi293F cells
Experimental: Emission and excitation spectra of all compounds were determined at a concentration of 33 nM in phosphate buffered saline (PBS) using an infinite 200pro (Tecan) with a resolution of 2 nm. […] For sensitivity assessment, we used PBS, PBS + BSA (0.05%), and Expi293F cells in fluorobrite (2 × 10^6 cells/mL).

[10] = BACE1 concentration 0.305 (unit not given; 0.3–5000 nM), triplicate
[11] = BACE1 concentration 0.61, triplicate
[12] = BACE1 concentration 1.221, triplicate
[13] = BACE1 concentration 2.441, triplicate
[14] = BACE1 concentration 4.883, triplicate
[15] = BACE1 concentration 9.766, triplicate
[16] = BACE1 concentration 19.531, triplicate
[17] = BACE1 concentration 39.062, triplicate
[18] = BACE1 concentration 78.125, triplicate
[19] = BACE1 concentration 156.25, triplicate
[20] = BACE1 concentration 312.5, triplicate
[21] = BACE1 concentration 625, triplicate
[22] = BACE1 concentration 1250, triplicate
[23] = BACE1 concentration 2500, triplicate
[24] = BACE1 concentration 5000, triplicate

Chain of BACE-1 (mouse Protein, recombinant) (P56818 46-457 limits assumed): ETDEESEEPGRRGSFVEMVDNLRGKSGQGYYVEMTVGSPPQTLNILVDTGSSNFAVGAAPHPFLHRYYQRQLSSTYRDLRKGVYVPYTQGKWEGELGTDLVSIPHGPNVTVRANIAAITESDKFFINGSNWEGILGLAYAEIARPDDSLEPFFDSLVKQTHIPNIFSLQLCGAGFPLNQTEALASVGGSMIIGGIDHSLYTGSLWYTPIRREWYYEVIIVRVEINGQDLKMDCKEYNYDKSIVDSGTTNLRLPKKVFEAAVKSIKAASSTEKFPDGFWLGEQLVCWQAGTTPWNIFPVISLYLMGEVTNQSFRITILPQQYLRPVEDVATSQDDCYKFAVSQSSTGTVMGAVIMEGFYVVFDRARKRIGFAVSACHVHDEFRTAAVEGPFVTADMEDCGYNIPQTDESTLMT
T1 sequence (P56817 46-457 limits assumed): as the sequence (P56818 46-457 limits assumed) above, with S6P, I162V, I165L, T180S, A182V, V340I, A393L counted along it
Chain of recombinant human BACE1 protein (amino acids 1–457, extracellular domain) (P56817 22-457): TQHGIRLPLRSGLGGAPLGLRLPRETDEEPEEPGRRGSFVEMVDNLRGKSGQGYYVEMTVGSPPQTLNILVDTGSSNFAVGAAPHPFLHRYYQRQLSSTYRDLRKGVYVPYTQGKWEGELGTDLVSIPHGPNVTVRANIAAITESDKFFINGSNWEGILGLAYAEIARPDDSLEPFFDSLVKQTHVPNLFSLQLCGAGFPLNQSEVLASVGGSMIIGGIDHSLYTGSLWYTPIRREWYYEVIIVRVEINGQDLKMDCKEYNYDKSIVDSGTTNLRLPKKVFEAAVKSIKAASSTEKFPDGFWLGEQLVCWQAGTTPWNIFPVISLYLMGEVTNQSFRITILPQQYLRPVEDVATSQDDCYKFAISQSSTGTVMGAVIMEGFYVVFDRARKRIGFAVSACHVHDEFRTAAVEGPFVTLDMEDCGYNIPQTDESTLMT
T3 sequence (P56817 46-501): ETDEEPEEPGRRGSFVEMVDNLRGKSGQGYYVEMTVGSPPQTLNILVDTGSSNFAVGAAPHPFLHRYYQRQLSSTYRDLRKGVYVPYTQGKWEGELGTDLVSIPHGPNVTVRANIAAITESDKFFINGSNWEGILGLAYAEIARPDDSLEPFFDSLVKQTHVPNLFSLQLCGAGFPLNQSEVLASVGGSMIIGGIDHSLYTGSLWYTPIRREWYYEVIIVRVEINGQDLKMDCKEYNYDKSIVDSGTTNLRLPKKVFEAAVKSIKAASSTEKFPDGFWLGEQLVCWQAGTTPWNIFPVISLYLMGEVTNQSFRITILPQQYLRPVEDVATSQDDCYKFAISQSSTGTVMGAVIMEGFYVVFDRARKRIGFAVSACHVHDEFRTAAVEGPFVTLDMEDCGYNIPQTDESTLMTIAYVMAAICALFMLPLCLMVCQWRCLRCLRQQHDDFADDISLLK
T2 sequence (P56817 46-501): as above
T4 sequence (P56817 46-501 D289N): as the sequence (P56817 46-501) above, with D244N counted along it

fluorescence reading, single replicates [1, 10] | fluorescence reading, single replicates [1, 11] | fluorescence reading, single replicates [1, 12] | fluorescence reading, single replicates [1, 13] | fluorescence reading, single replicates [1, 14] | fluorescence reading, single replicates [1, 15] | fluorescence reading, single replicates [1, 16] | fluorescence reading, single replicates [1, 17] | fluorescence reading, single replicates [1, 18] | fluorescence reading, single replicates [1, 19] | fluorescence reading, single replicates [1, 20] | fluorescence reading, single replicates [1, 21] | fluorescence reading, single replicates [1, 22] | fluorescence reading, single replicates [1, 23] | fluorescence reading, single replicates [1, 24] | Structure (SMILES) | binding of free acid dyes to recombinant BACE1 [1] | further results
996.43 and 995.816 and 995.716 | 995.873 and 995.729 and 996.039 | 995.788 and 996.299 and 996.353 | 996.08 and 995.975 and 995.829 | 996.289 and 995.771 and 996.152 | 995.856 and 996.198 and 996.218 | 996.164 and 995.908 and 996.132 | 996.17 and 996.327 and 995.657 | 996.076 and 996.3 and 995.686 | 996.777 and 995.969 and 996.167 | 996.159 and 995.85 and 996.173 | 995.972 and 996.54 and 995.887 | 996.02 and 995.911 and 996.501 | 996.211 and 996.223 and 996.163 | 996.477 and 996.486 and 996.65 | N=c1ccc2c(-c3cc(C(=O)O)ccc3C(=O)O)c3ccc(N)c(S(=O)(=O)O)c3oc-2c1S(=O)(=O)O [Alexa488] | did not observe any indication for affinity | –
1000.167 and 1000.199 and 1000.049 | 1000.123 and 1000.132 and 1000.01 | 1000.102 and 1000.025 and 1000.071 | 1000.271 and 1000.043 and 1000.008 | 1000.035 and 1000.075 and 1000.095 | 999.978 and 999.965 and 1000.148 | 1000.105 and 1000.065 and 999.949 | 1000.023 and 999.969 and 1000.096 | 1000.136 and 1000.189 and 1000.122 | 1000.014 and 1000.053 and 1000.126 | 999.991 and 999.997 and 999.948 | 999.898 and 999.877 and 999.931 | 999.758 and 999.742 and 999.781 | 999.645 and 999.707 and 999.65 | 999.562 and 999.587 and 999.529 | CC1(C)C=C(CS(=O)(=O)O)c2cc3c(cc2=N1)Oc1cc2c(cc1C=3c1cc(C(=O)O)ccc1C(=O)O)C(CS(=O)(=O)O)=CC(C)(C)N2 [Alexa568] | did not observe any indication for affinity | –
– | – | – | – | – | – | – | – | – | – | – | – | – | – | – | C[C@@H](NC(=O)c1cc(C(=O)N[C@@H](Cc2ccccc2)[C@H](O)CNC2CC2)cc(N(C)S(C)(=O)=O)c1)c1ccccc1 [C3] | – | IC50 [2]: nanomolar range
– | – | – | – | – | – | – | – | – | – | – | – | – | – | – | C[C@@H](NC(=O)c1cc(C(=O)N[C@@H](Cc2ccccc2)[C@H](O)CNC2CC2)cc(N(C)S(=O)(=O)CCCNC(=O)c2ccc(C(=O)O)c(C3=c4cc5c(cc4Oc4cc6c(cc43)C(CS(=O)(=O)O)=CC(C)(C)N6)=NC(C)(C)C=C5CS(=O)(=O)O)c2)c1)c1ccccc1 | – | EC50 [3]: 45.7 nM; diffusion time constant of the second (BACE1-bound, slow) population ([3]; 100 nM probe with BACE1 ECD, pH 5, mean ± SEM, n = 3 preparations): 300 ± 20 μs; increase of potency of the pIC50 in a cell-free assay vs parent C3 ([4]; compared with unconjugated C3): 10 fold; IC50 ([4]; logistic fit, n = 3 for each compound, read-out: pIC50 (negative logarithm of the half-inhibitory concentration) (converted)): 2.45 nM; signal-to-background ratio [5]: 5.9; diffusion time constant of free probe [6]: 49 ± 2 μs; staining of BACE1 after preincubation with unconjugated C3 [7]: no appreciable fluorescence; staining of BACE1 D289N [8]: no appreciable fluorescence; increase of fluorescent output in PBS supplemented with BSA ([9]; PBS + BSA (0.05%) vs PBS alone): +228%; increase of fluorescent output in presence of Expi293F cells ([9]; mock Expi293F cells in fluorobrite vs PBS alone): +302%
